Molecular target: BACE (Homo sapiens, UniProt P56817)
Assay: Ki Determination for the Inhibition of BACE (FS-1 peptide fluorescence cleavage assay)
Format: biochemical
Details: apparent Ki; 50 nM BACE, 10 μM FS-1 substrate, 0.1M sodium acetate pH 4.5
In short: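 Human BACE (50 nM) was preincubated 15 min at room temperature with compound (2% DMSO) in 0.1 M sodium acetate pH 4.5, then 10 μM FS-1 peptide was added. Cleavage was followed by fluorescence (ex 355/em 495 nm), and apparent Ki came from fitting to the integrated competitive tight-binding inhibition equation.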

BACE, sequence (P56817 46-501): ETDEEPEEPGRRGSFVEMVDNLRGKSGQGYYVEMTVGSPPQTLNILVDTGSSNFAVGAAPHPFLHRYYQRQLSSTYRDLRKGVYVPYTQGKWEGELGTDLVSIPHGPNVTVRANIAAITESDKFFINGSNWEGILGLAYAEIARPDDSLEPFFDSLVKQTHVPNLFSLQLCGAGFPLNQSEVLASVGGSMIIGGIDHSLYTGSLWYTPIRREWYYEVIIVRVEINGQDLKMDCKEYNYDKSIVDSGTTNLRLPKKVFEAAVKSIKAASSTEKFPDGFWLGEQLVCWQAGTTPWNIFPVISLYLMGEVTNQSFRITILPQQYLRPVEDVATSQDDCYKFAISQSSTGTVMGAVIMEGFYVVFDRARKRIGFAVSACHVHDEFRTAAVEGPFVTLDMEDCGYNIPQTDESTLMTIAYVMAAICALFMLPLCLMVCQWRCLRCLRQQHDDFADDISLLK

Ki [µM]	SMILES
< 3	FC(F)(F)c1ccccc1OCc1cc(-c2ccco2)c(COc2ccccc2C(F)(F)F)cc1C1=CCNCC1 [Compound 346, 4-[4-Furan-2-yl-2,5-bis-(2-trifluoromethyl-phenoxymethyl)-phenyl]-1,2,3,6-tetrahydro-pyridine]
< 3	Fc1ccccc1-c1cc(COc2ccccc2C(F)(F)F)c(C2=CCNCC2)cc1COc1ccccc1C(F)(F)F [Compound 347, 4-[2′-Fluoro-2,5-bis-(2-trifluoromethyl-phenoxymethyl)-biphenyl-4-yl]-1,2,3,6-tetrahydro-pyridine]
< 3	FC(F)(F)c1ccccc1OCc1cc(-c2ccccc2Cl)c(COc2ccccc2C(F)(F)F)cc1C1=CCNCC1 [Compound 348, 4-[2′-Chloro-2,5-bis-(2-trifluoromethyl-phenoxymethyl)-biphenyl-4-yl]-1,2,3,6-tetrahydro-pyridine]
< 3	Fc1cccc(F)c1-c1cc(COc2ccccc2C(F)(F)F)c(C2=CCNCC2)cc1COc1ccccc1C(F)(F)F [Compound 349, 4-[2′,6′-Difluoro-2,5-bis-(2-trifluoromethyl-phenoxymethyl)-biphenyl-4-yl]-1,2,3,6-tetrahydro-pyridine]
< 3	CC(=O)c1ccccc1-c1cc(COc2ccccc2C(F)(F)F)c(C2=CCNCC2)cc1COc1ccccc1C(F)(F)F [Compound 350, 1-[4′-(1,2,3,6-Tetrahydro-pyridin-4-yl)-2′,5′-bis-(2-trifluoromethyl-phenoxymethyl)-biphenyl-2-yl]-ethanone]
< 3	Oc1cccc(-c2cc(COc3ccccc3C(F)(F)F)c(C3=CCNCC3)cc2COc2ccccc2C(F)(F)F)c1 [Compound 351, 4′-(1,2,3,6-Tetrahydro-pyridin-4-yl)-2′,5′-bis-(2-trifluoromethyl-phenoxymethyl)-biphenyl-3-ol]
< 3	Oc1ccc(-c2cc(COc3ccccc3C(F)(F)F)c(C3=CCNCC3)cc2COc2ccccc2C(F)(F)F)cc1 [Compound 352, 4′-(1,2,3,6-Tetrahydro-pyridin-4-yl)-2′,5′-bis-(2-trifluoromethyl-phenoxymethyl)-biphenyl-4-ol]
< 3	O=[N+]([O-])c1cccc(-c2cc(COc3ccccc3C(F)(F)F)c(C3=CCNCC3)cc2COc2ccccc2C(F)(F)F)c1 [Compound 353, 4-[3′-Nitro-2,5-bis-(2-trifluoromethyl-phenoxymethyl)-biphenyl-4-yl]-1,2,3,6-tetrahydro-pyridine]
< 3	O=[N+]([O-])c1ccc(-c2cc(COc3ccccc3C(F)(F)F)c(C3=CCNCC3)cc2COc2ccccc2C(F)(F)F)cc1 [Compound 354, 4-[4′-Nitro-2,5-bis-(2-trifluoromethyl-phenoxymethyl)-biphenyl-4-yl]-1,2,3,6-tetrahydro-pyridine]
< 3	CC(O)c1ccccc1-c1cc(COc2ccccc2C(F)(F)F)c(C2=CCNCC2)cc1COc1ccccc1C(F)(F)F (stereo not drawn) [Compound 355, 1-[4′-(1,2,3,6-Tetrahydro-pyridin-4-yl)-2′,5′-bis-(2-trifluoromethyl-phenoxymethyl)-biphenyl-2-yl]-ethanol]
< 3	FC(F)(F)c1ccccc1OCc1cc(COc2ccccc2C(F)(F)F)c(C2=CCNCC2)cc1COc1ccccc1C(F)(F)F [Compound 356, 4-[2,4,5-Tris-(2-trifluoromethyl-phenoxymethyl)-phenyl]-1,2,3,6-tetrahydro-pyridine]
< 3	FC(F)(F)c1ccccc1OCc1cc(-c2cc3ccccc3o2)c(COc2ccccc2C(F)(F)F)cc1C1=CCNCC1 [Compound 357, 4-[4-Benzofuran-2-yl-2,5-bis-(2-trifluoromethyl-phenoxymethyl)-phenyl]-1,2,3,6-tetrahydro-pyridine]
< 3	FC(F)(F)c1ccccc1OCc1cc(-c2ccc[nH]2)c(COc2ccccc2C(F)(F)F)cc1C1=CCNCC1 [Compound 358, 4-[4-(1H-Pyrrol-2-yl)-2,5-bis-(2-trifluoromethyl-phenoxymethyl)-phenyl]-1,2,3,6-tetrahydro-pyridine]
< 3	Nc1ccc(-c2cc(COc3ccccc3C(F)(F)F)c(C3=CCNCC3)cc2COc2ccccc2C(F)(F)F)cc1 [Compound 359, 4′-(1,2,3,6-Tetrahydro-pyridin-4-yl)-2′,5′-bis-(2-trifluoromethyl-phenoxymethyl)-biphenyl-4-ylamine]
< 3	FC(F)(F)c1ccccc1OCc1cc(-c2ccccc2)ccc1C1=CCNCC1 [Compound 360, 4-[3-(2-Trifluoromethyl-phenoxymethyl)-biphenyl-4-yl]-1,2,3,6-tetrahydro-pyridine]
3 to 30	Oc1ccc(-c2ccc(C3=CCNCC3)c(COc3ccccc3C(F)(F)F)c2)cc1 [Compound 361, 4′-(1,2,3,6-Tetrahydro-pyridin-4-yl)-3′-(2-trifluoromethyl-phenoxymethyl)-biphenyl-4-ol]
3 to 30	Oc1ccccc1-c1ccc(C2=CCNCC2)c(COc2ccccc2C(F)(F)F)c1 [Compound 362, 4′-(1,2,3,6-Tetrahydro-pyridin-4-yl)-3′-(2-trifluoromethyl-phenoxymethyl)-biphenyl-2-ol]
3 to 30	FC(F)(F)c1ccccc1OCc1cc(-c2ccoc2)ccc1C1=CCNCC1 [Compound 363, 4-[4-Furan-3-yl-2-(2-trifluoromethyl-phenoxymethyl)-phenyl]-1,2,3,6-tetrahydro-pyridine]
< 3	NC(=O)c1cccc(-c2cc(COc3ccccc3C(F)(F)F)c(C3=CCNCC3)cc2COc2ccccc2C(F)(F)F)c1 [Compound 364, 4′-(1,2,3,6-Tetrahydro-pyridin-4-yl)-2′,5′-bis-(2-trifluoromethyl-phenoxymethyl)-biphenyl-3-carboxylic acid amide]
< 3	COc1ccc(-c2cc(COc3ccccc3C(F)(F)F)c(C3=CCNCC3)cc2COc2ccccc2C(F)(F)F)cc1 [Compound 365, 4-[4′-Methoxy-2,5-bis-(2-trifluoromethyl-phenoxymethyl)-biphenyl-4-yl]-1,2,3,6-tetrahydro-pyridine]
< 3	OCc1ccc(-c2cc(COc3ccccc3C(F)(F)F)c(C3=CCNCC3)cc2COc2ccccc2C(F)(F)F)cc1 [Compound 366, [4′-(1,2,3,6-Tetrahydro-pyridin-4-yl)-2′,5′-bis-(2-trifluoromethyl-phenoxymethyl)-biphenyl-4-yl]-methanol]
< 3	OCc1ccccc1-c1cc(COc2ccccc2C(F)(F)F)c(C2=CCNCC2)cc1COc1ccccc1C(F)(F)F [Compound 367, [4′-(1,2,3,6-Tetrahydro-pyridin-4-yl)-2′,5′-bis-(2-trifluoromethyl-phenoxymethyl)-biphenyl-2-yl]-methanol]
< 3	COC(=O)c1cccc(-c2cc(COc3ccccc3C(F)(F)F)c(C3=CCNCC3)cc2COc2ccccc2C(F)(F)F)c1 [Compound 368, 4′-(1,2,3,6-Tetrahydro-pyridin-4-yl)-2′,5′-bis-(2-trifluoromethyl-phenoxymethyl)-biphenyl-3-carboxylic acid methyl ester]
< 3	COC(=O)c1ccc(-c2cc(COc3ccccc3C(F)(F)F)c(C3=CCNCC3)cc2COc2ccccc2C(F)(F)F)cc1 [Compound 369, 4′-(1,2,3,6-Tetrahydro-pyridin-4-yl)-2′,5′-bis-(2-trifluoromethyl-phenoxymethyl)-biphenyl-4-carboxylic acid methyl ester]
